Assay results reported in patent publication US12479827B2, “Heteroaromatic carboxamide derivatives as plasma kallikrein inhibitors” (Boehringer Ingelheim International GmbH, priority 2020, dated 2025).

Columns and labels:
Type in all cases: biochemical
Human PKK = molecular target: T1, Human PKK (Homo sapiens, UniProt P03952); test: Inhibition of PKK using an endpoint assay (human PKK); settings: fluorogenic substrate H-Pro-Phe-Arg-AMC, 1 h room temperature, method names human or rat PKK, table does not say which
T1 construct: purchased Enzyme Research Laboratories
T1 sequence (P03952 20-390 limits assumed): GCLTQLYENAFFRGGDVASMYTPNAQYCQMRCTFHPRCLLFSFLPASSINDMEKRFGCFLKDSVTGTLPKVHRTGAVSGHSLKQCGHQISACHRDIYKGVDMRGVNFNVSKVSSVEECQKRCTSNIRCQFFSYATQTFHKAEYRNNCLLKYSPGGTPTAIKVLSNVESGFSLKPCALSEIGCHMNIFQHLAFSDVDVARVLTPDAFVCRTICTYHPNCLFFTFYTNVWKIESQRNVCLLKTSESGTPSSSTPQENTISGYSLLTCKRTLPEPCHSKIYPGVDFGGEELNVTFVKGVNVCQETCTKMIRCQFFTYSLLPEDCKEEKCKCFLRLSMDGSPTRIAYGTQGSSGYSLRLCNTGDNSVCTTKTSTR
T1 sequence (P03952 391-638 limits assumed): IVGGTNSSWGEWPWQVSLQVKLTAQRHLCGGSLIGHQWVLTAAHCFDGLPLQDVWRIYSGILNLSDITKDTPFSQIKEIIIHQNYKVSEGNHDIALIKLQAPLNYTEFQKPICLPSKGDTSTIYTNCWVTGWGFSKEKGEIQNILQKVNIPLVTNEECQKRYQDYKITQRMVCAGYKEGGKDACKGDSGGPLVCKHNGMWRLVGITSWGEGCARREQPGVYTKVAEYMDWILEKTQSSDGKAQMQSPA
How it was run: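 Human PKK inhibition measured in 100 mM Tris, 150 mM NaCl, pH 7.8, 0.1% BSA, 0.05% Tween20, 1% DMSO. Endpoint format: reaction stopped with PPACK II at 1 μM final, fluorescence read at 355 nm excitation/460 nm emission.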

[1] = molecular target: T2, PKK in kaolin activated human platelet poor plasma (Homo sapiens, UniProt P03952); test: Inhibition of PKK in kaolin activated human PPP; settings: 25-750 μg/mL kaolin, global fit, text b200 calls the values IC90;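 note: readout is the rate of fluorogenic substrate cleavage in rfu per min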
T2 construct: Platelet poor plasma (PPP) obtained from human wholeblood; from tissue
T2 sequence (P03952 391-638 limits assumed): as above
T2 sequence (P03952 20-390 limits assumed): as the sequence (P03952 20-390 limits assumed) above
Method: Platelet poor plasma (PPP) obtained from human wholeblood, anticoagulated with Na-Citrate, is incubated with various concentrations of the test compound together with either 25, 75, 250, or 750 μg/mL kaolin in assay buffer for 20 min at 37° C. such that for each kaolin dose used a concentration response is obtained for the test compound.

human TK1 = molecular target: T3, human TK1 (Homo sapiens, UniProt P06870); test: Inhibition of TK1 (Ki); settings: activated human TK1, substrate H-Pro-Phe-Arg-AMC, 24° C.
T3 construct: purchased R&D Systems
T3 sequence (P06870 25-262): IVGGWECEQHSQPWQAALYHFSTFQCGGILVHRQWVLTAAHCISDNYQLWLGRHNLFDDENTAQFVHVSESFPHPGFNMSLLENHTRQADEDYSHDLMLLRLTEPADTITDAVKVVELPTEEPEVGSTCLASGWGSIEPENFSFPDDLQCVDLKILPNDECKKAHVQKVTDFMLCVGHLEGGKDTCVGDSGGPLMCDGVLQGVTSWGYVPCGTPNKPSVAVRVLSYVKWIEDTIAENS
Method: The ability of compounds of formula (I) to inhibit plasma kallikrein (PKK), Factor XIIa (FXIIa), Factor XIa (FXIa), Factor Xa (FXa), Factor IIa (alpha-thrombin; FIIa), plasmin, trypsin, tissue kallikrein 1 (TK1), Factor VIIa (FVIIa), or FVIIa complexed with Tissue Factor, phospholipids and CaCl2 (FVIIa/TF/PL/CaCl2) is determined using the following biochemical assays in assay buffer (100 mM Tris, 150 mM NaCL, adjusted to a pH of 7.8 with HCl, and containing 0.1% (w/v) BSA and 0.05% (v/v) Tween20) in the presence of 1% (v/v) DMSO:
Prior to the assay, human TK1 (R&D Systems) is activated by incubation with human trypsin (Calbiochem) in a 1:10,000 ratio for 15 min at 37° C. For assaying TK1 inhibitory activity, activated TK1 (31.25 nM or 1 U/mL) is incubated at 24° C. with 0.1 mM fluorogenic substrate H-Pro-Phe-Arg-AMC (11295 from Bachem) and various concentrations of the test compound in assay buffer. Measurements are performed in a kinetic interval every 2nd minute for 16 min using a Spectramax M5 (Molecular Devices) with the following settings of the wavelength excitation of 350 nm and wavelength emission of 450 nm.
The pIC50 values are then fitted using a four-parametric fitting procedure using GraphPad Prism (version 6; GraphPad Software, Inc.). Respective Ki values are obtained by correction of the IC50 values for the respective KM value of the used substrate (see Table A for the obtained KM values of the used substrates) using the following formula:
[formula] Where the IC50 is in molar and the KM value in mM.

Compound	IC50 (Human PKK) [nM]	IC50 [1] [nM]	Ki (human TK1) [nM]
Cc1nc(N2CC3C(C2)C3(F)F)ccc1Cn1cc(C(=O)N[C@@H]2CCc3c2ncn3C)cn1 (stereo partly drawn) [Example 90, 1-[(6-{6,6-Difluoro-3-azabicyclo[3.1.0]hexan-3-yl}-2-methylpyridin-3-yl)methyl]-N-[(4R)-1-methyl-1H,4H,5H,6H-cyclopenta[d]imidazol-4-yl]-1H-pyrazole-4-carboxamide]	0.7	126	> 10000
Cn1cnc2c1CC[C@H]2NC(=O)c1cnn(Cc2ccc(N3CC4C(C3)C4(F)F)nc2)c1 (stereo partly drawn) [Example 80, 1-[(6-{6,6-Difluoro-3-azabicyclo[3.1.0]hexan-3-yl}pyridin-3-yl)methyl]-N-[(4R)-1-methyl-1H,4H,5H,6H-cyclopenta[d]imidazol-4-yl]-1H-pyrazole-4-carboxamide]	4.7	495	> 10000
Cc1nc(N2CC3C(C2)C3(F)F)ncc1Cn1cc(C(=O)N[C@@H]2CCc3c2ncn3C)c2cncnc21 (stereo partly drawn) [Example 175, 7-[(2-{6,6-Difluoro-3-azabicyclo[3.1.0]hexan-3-yl}-4-methylpyrimidin-5-yl)methyl]-N-[(4R)-1-methyl-1H,4H,5H,6H-cyclopenta[d]imidazol-4-yl]-7H-pyrrolo[2,3-d]pyrimidine-5-carboxamide]	2.9	822	> 10000
Cc1nc(N2CC3CC3C2)ncc1Cn1cc(C(=O)N[C@@H]2CCc3c2ncn3C)nn1 (stereo partly drawn) [Example 137, 1-[(2-{3-Azabicyclo[3.1.0]hexan-3-yl}-4-methylpyrimidin-5-yl)methyl]-N-[(4R)-1-methyl-1H,4H,5H,6H-cyclopenta[d]imidazol-4-yl]-1H-1,2,3-triazole-4-carboxamide]	4.4	756	> 10000

More lines, now with the values ahead:

IC50 (Human PKK) [nM]	IC50 [1] [nM]	Ki (human TK1) [nM]	Compound
5	844	> 10000	Cc1nc(N2CC3C(C2)C3(F)F)ncc1Cn1cc(C(=O)N[C@@H]2CCc3c2ncn3C)nn1 (stereo partly drawn) [Example 178, 1-[(2-{6,6-Difluoro-3-azabicyclo[3.1.0]hexan-3-yl}-4-methylpyrimidin-5-yl)methyl]-N-[(4R)-1-methyl-1H,4H,5H,6H-cyclopenta[d]imidazol-4-yl]-1H-1,2,3-triazole-4-carboxamide]
1.8	14700	> 10000	Cn1cnc2c1CC[C@H]2NC(=O)c1cnn(Cc2cnc(N3CC4CC4C3)c(C#N)c2)c1 (stereo partly drawn) [Example 114, 1-[(6-{3-Azabicyclo[3.1.0]hexan-3-yl}-5-cyanopyridin-3-yl)methyl]-N-[(4R)-1-methyl-1H,4H,5H,6H-cyclopenta[d]imidazol-4-yl]-1H-pyrazole-4-carboxamide]
0.5	192	> 10000	CCc1nc(N2CC3CC3C2)ccc1Cn1cnc(C(=O)N[C@@H]2CCc3c2ncn3C)c1 (stereo partly drawn) [Example 75, 1-[(6-{3-Azabicyclo[3.1.0]hexan-3-yl}-2-ethylpyridin-3-yl)methyl]-N-[(4R)-1-methyl-1H,4H,5H,6H-cyclopenta[d]imidazol-4-yl]-1H-imidazole-4-carboxamide]
0.5	249	> 10000	CCc1nc(N2CC3CC3C2)ccc1Cn1cc(C(=O)N[C@@H]2CCc3c2ncn3C)cn1 (stereo partly drawn) [Example 22, 1-[(6-{3-Azabicyclo[3.1.0]hexan-3-yl}-2-ethylpyridin-3-yl)methyl]-N-[(4R)-1-methyl-1H,4H,5H,6H-cyclopenta[d]imidazol-4-yl]-1H-pyrazole-4-carboxamide]
1.5	1080	> 10000	Cn1cnc2c1CC[C@H]2NC(=O)c1cnn(Cc2ccc(N3CC4CC4C3)c(C#N)c2)c1 (stereo partly drawn) [Example 190, 1-[(4-{3-Azabicyclo[3.1.0]hexan-3-yl}-3-cyanophenyl)methyl]-N-[(4R)-1-methyl-1H,4H,5H,6H-cyclopenta[d]imidazol-4-yl]-1H-pyrazole-4-carboxamide]
